Consider 1 compound from patent publication US20090247495A1, “CU[…] AND USES THEREOF” (priority 2007, published 2009).

Each structure is given as a SMILES string.

The test system of one series is K562 cells. As to the kind of experiment: Cell morphology by microscopy, K562. The format is cell-based, human. The settings on record: 48 hours. As to the method: 10^5/ml K562 cells were treated with cucurbitacin B in the presence of complete medium containing 10% FBS for 48 hours. The changes in cell morphology were visualized using Leica DMIL (Leica Microsystem). Cells were harvested and rinsed twice with ice-cold PBS (pH7.4) and a total 2.5×10^5 K562 cells were stained with 10 μl Annexin V and 10 μl propidium iodide in 100 μl 1×binding buffer for 15 minutes in dark and then subjected to apoptosis analysis with FACSCalibar Flow cytometer system (FACS Calibur BD Flow Cytometer). • 6.1.5 Flow Cytometry for Cell Cycle Analysis
After 48 hours of cucurbitacin B treatment, the cells were viewed using a Leica DMIL microscope at 400×magnification. […] However, the treated cells lost the rounded shape and shrank in size at the highest dose of cucurbitacin B used (80nM).

Another series has as its system Ras-GTP. The series is described as follows: GTPase pull-down assay (GST-Raf1-RBD) in K562 cells. As to conditions: 50 μM, 2 minutes to 4 hours. The format is cell-based, human. As to the method: Lysate with 500 μg protein were used to determined the Ras-GTP content by the Glutathione S-transferase(GST)-RBD(Ras-binding domain of Raf) pull down assay. The treated and control cells were lysed in lysis buffer (25 mMTris-HCl, pH7.5, 150 mM NaCl, 5 mM MgCl2, 1% NP-40, 1 mM DTT and 5% glycerol) for 5 minutes at 4° C. Soluble cell lysates were obtained by centrifuged at 17000 g for 5 minutes. 500 μg cell lysate were collected and incubated with 80 μg GST-Raf1-RBD in 50 mM Tris-HCl, pH7.2, 150 mM NaCl, 0.5% Triton X-100, 5 mM MgCl2, 1 m MDTT and 10% glycerol for 1 hour at 4° C. The beads were washed with lysis buffer for 3 times and then resuspended and boiled in 2×sample buffer at 100° C. for 5 minutes. 25 μsupernatants were collected by centrifuged at 7200 g for 2 minutes and then resolved in 15% SDS-PAGE followed by western blot analysis using anti-Ras antibody. • 6.1.8 Laboratory-Scale Preparation of Cucurbitacin B and Cucurbitacin D
In order to further investigate if cucurbitacin B block the Stat3 activation is truly through Erk pathway in K562 cells, the ability of cucurbitacin B to inhibit the Ras/Raf/Mek/Erk pathway was determined by measuring Ras-GTP, phosphorylation of c-Raf, Mek1/2, Erk1/2 and Elk-1 in K562 cells. The cells were incubated with 50 μM cucurbitacin B for the indicated time intervals (2 minutes, 5 minutes, 10 minutes, 30 minutes, 1 hour and 4 hours). […]

In a further series the test system is Erk1/2. The series is described as follows: Western blot of Erk1/2 in HepG2, HT29 and MCF-7 cells. It is filed as cell-based, human. The protocol: The human cancer cells line were serum starved for 18 hours prior to CuB/CuD treatment. Cells were incubated in a 6-well plate filled with 5 ml growth medium (RPMI with 0.2% FBS and 1% PS) at the cell density of 1×10^5 cells/ml, in the presence or absence of two different dosages of CuB/CuD for various time intervals. The drug treatment was terminated by centrifugation at 1,500 rpm for 5 minutes and the cells were rinsed twice with phosphate-buffered saline and lysed at 4° C. in a lysis buffer containing 50 mM Tris-HCl, pH7.5, 100 mM NaCl, 5 mM EDTA, 40 mM NaP2O7, 1% Triton X-100, 1 mM dithiothreitol, 200 μM Na3VO4, 100 uM phenylmethysufonyl fluoride, 2 μg/ml leupeptin, 4 μg/ml aprotinin and 0.7 μg/ml pepstatin. The insoluble protein lysate were removed by centrifugation for 10 minutes at 13,000 rpm. Fifteen micrograms of protein lysate was resolved using 10% SDS-polyacryamide gel electrophoresis (PAGE) and then subjected to western blot anaylsis. Western blots were performed with anti-Stat3, anti-Erk1/2 and anti-hsp27 antibodies specific for phosphor- and total Stat3, Erk and hsp27 proteins. The protein bands were then visualized with the Enhanced Chemiluminescence Plus (ECL Plus) detection system (Amersham). • 6.2.8.1 Inhibition Effect Cucurbitacin B/Cucurbitacin D on Stat3 Activation in HepG2 and HT29 Cells
Cells were incubated either with CuB or CuD (25 ug/ml or the dosage of IC50) for various time intervals (5, 10 or 30 mins, 1 or 4 hours). The Stat3 activation was detected by western blot.
(In general: Immunoblotting shows a protein as a band on a membrane.)

The next series relates to PARP. As to the kind of experiment: Western blot of PARP cleavage in HL60 cells. The format is cell-based, human. As to the method:
Control cells, as well as cells treated with cucurbitacin B or cucurbitacin D, were harvested and collected by centrifugation. Whole cell extracts were then prepared by lysing the cells using 4% sodium dodecyl sulfate (SDS) gel sample buffer. Cell extracts were boiled for 10 min and chilled on ice, subjected to 12% SDS-polyacrylamide gel electrophoresis, and transferred to a PVDF membrane. Each membrane was cut into to two pieces with one piece incubated at 4° C. overnight with antibodies against cell cycle signaling proteins, such as ERK, phosphorlated-ERK, p38, phosphorlated-p38, Cyclin E, Retinoblastoma, phosphalated-Retinoblastoma and c-myc, and apoptotic protein (PARP). β-actin was used as a control for protein loading. All antibodies were obtained from Cell signaling Technologies (USA). Then membranes were incubated at 37° C. for 1 h with secondary antibody conjugated with peroxidase, and the signal was detected using chemiluminescence detection reagent. The relative protein level was calculated as the ratio of the optical density of the protein of interest to that of β-actin.

Series [1] in a line: Gross and microscopic examination of organs of treated mice. The format is in vivo, nude mice. The settings on record: i.p. 1 mg/kg three times a week, six weeks. As to the method:
One million human MDA-MB-231 breast cancer cells/Matrigel (vol 1:1) were inoculated isotopically into the breasts of nude mice. The mice received intraperitoneal injections of 1 mg/ml of cucurbitacin B 3 times a week starting on the day after inoculation of the cells. The longitudinal and the transverse diameter, and the height were measured once a week. The volume was calculated by multiplying these elements, and the relative tumor size was determined by dividing the product by the initial volume. After 6 weeks, the mice were sacrificed to weigh the dissected tumors. At that moment, blood was taken for analysis, where organs and tumors were inspected, dissected, fixed and stained with hematoxylin-eosin and/or Ki-67. Data were expressed as mean±SD. Statistical analysis was performed by student's t test.
Six weeks after i.p. treatment with either vehicle or cucurbitacin B 1 mg/kg three times a week, mice were euthanized and tumors were observed and weighed. Results represented the mean and SD of 9 treated and 9 control tumors. Statistical analysis was performed by student's t test.

With `CC(=O)OC(C)(C)/C=C/C(=O)[C@](C)(O)C1[C@H](O)C[C@@]2(C)C3CC=C4C(C[C@H](O)C(=O)C4(C)C)[C@]3(C)C(=O)C[C@]12C` (some centres unmarked) [cucurbitacin B], the “changes in cell morphology” value with K562 cells (20 nM and 40 nM) is recorded as “increase in cell size”; in the series on K562 cells (80 nM), “shrinkage of cell size”. The Ras-GTP activation entry in the series on Ras-GTP was “no significant change”. Also, the “expression of Erk1/2” value in the series on Erk1/2 (HT29, 5 minutes of treatment) is reported as “up-regulated the expression of Erk1/2 significantly”; with Erk1/2 (HepG2, 30 minutes of treatment), “up-regulated the expression of Erk1/2 significantly”. The Erk activation entry in the series on Erk1/2 (MCF-7 cells, 5 minutes) is reported as “significant Erk activation”. Also, the “apoptosis marker PARP” value with PARP is listed as “cleavage of PARP”. For the same compound, the “gross and microscopic examination of the liver, spleen, and peritoneum” value in series [1] was “no significant difference”.
